Experimental data: patent US6800638B2, “Tetrahydropyridine derivatives, their preparation and their use as cell proliferation inhibitors” (Hoffman-La Roche Inc., priority 2000, dated 2004)

test system: HDAC; test: HDAC inhibition assay with aminocoumarin derivative of omega-acetylated lysine as substrate; assay type: biochemical; conditions: compound concentration 10 nM; protocol of Hoffmann et al. 1999
Protocol: To determine the HDAC inhibitory properties of the compounds of the invention an assay was performed using an aminocoumarin derivative of an omega-acetylated lysine as substrate for the enzyme. This assay has been described in detail by Hoffmann, K., et al., Nucleic Acids Res. 27 (1999) 2057-2058. Using the protocol described therein, the inhibitory effect of representative compounds was determined at a concentration of 10 nM.

Going from `O=C(CCCCCCCN1CCc2ccccc2C1)NO` [Example 1, 8-(3,4-Dihydro-1H-isoquinolin-2-yl)-octanoic acid hydroxyamide] to `O=C(CCCCCCCN1CCc2c([nH]c3ccccc23)C1)NO` [Example 7, 8-(1,3,4,9-tetrahydro-β-carbolin-2-yl)-octanoic acid hydroxyamide], the “Inhibitory effect at 10 nM in %” value falls from 54% to 26%.

`CCOc1cc2c(cc1OCC)CN(CCCCCCCC(=O)NO)CC2` [Example 5, 8-(6,7-Diethoxy-3,4-dihydro-1H-isoquinolin-2-yl)-octanoic acid hydroxyamide] and `COc1cc2c(cc1OC)C(c1ccccc1)N(CCCCCCCC(=O)NO)CC2` (stereo not shown) [Example 6, 8-(6,7-dimethoxy-1-phenyl-3,4-dihydro-1H-isoquinolin-2-yl)-octanoic acid hydroxyamide] are the same in “Inhibitory effect at 10 nM in %” value: 26% for the first, 26% for the second.
